In brackets after ≈: the same amount, converted by molar mass. Values belong to the compound of their own block, whether it stands above or below them.
Experiments:
[1] = system: CCRF-CEM; test: IC50 in whole cell human leukemia cell lines, CCRF-CEM; type: cell-based; settings: read-out: IC₅₀
Protocol: The IC₅₀ in whole cell human leukemia cell lines, CCRF-CEM, of N-[5-(2-{2-amino-4-hydroxy-5,6,7,8-tetrahydropyrido[2,3-d]pyrimidin-6-yl}ethyl)thien-2-ylcarbonyl]-L-glutamic acid is 0.0015 ug/mL. The IC₅₀ of N-[5-(2-{2-amino-4-hydroxy-5,6,7,8-tetrahydropyrido[2,3-d]pyrimidin-6-yl}ethyl)fur-2-ylcarbonyl]-L-glutamic acid is 0.010 ug/mL. The IC₅₀ of N-[4-(2-{2-amino-4-hydroxy-5,6,7,8-tetrahydropyrido[2,3-d]pyrimidin-6-yl}-ethyl)thien-2-ylcarbonyl]-L-glutamic acid is 0.0756 ug/mL.
The IC₅₀ in whole cell human leukemia cell lines, CCRF-CEM, of other compounds of this invention are as follows: […]

[2] = system: 6C3HED lymphosarcoma tumors; test: In vivo evaluation against 6C3HED lymphosarcoma tumors in mice; settings: IP, daily administration
[3] = system: B-16 Melanoma tumors; test: In vivo evaluation against B-16 Melanoma tumors in mice; settings: IP, daily administration, days 1, 7
[4] = system: CA-755 Adenocarcinoma tumors; test: In vivo evaluation against CA-755 Adenocarcinoma tumors in mice; settings: IP, daily administration, days 1, 4, 7, 10
[5] = system: LX-1 Lung Xenography; test: In vivo evaluation against LX-1 Lung Xenography in mice; settings: IP, daily administration, days 1, 4, 7, 10
[6] = system: CX-1 Colon Xenography; test: In vivo evaluation against CX-1 Colon Xenography in mice; settings: IP, daily administration, days 1, 4, 7, 10
[7] = system: MX-1 Mammary Xenography; test: In vivo evaluation against MX-1 Mammary Xenography in mice; settings: IP, daily administration, days 1, 4, 7, 10
[8] = system: C3H Mammary Adenocarcinoma tumors; test: In vivo evaluation against C3H Mammary Adenocarcinoma tumors in mice; settings: IP, daily administration, days 1, 4, 7, 10

Compound: Nc1nc(O)c2c(n1)NCC(CCCC(=O)N[C@@H](CCC(=O)O)C(=O)O)C2 (stereo partly drawn) [N-[4-(2-amino-4-hydroxy-5,6,7,8-tetrahydropyrido[2,3-d]pyrimidin-6-yl)butyryl]-L-glutamic acid]
- % Inhibition ([2]; 3.12 mg/kg, eight days): 0%
- Toxicity ([2]; 3.12 mg/kg, eight days): 0/10
- % Inhibition ([2]; 6.25 mg/kg, eight days): 11%
- Toxicity ([2]; 6.25 mg/kg, eight days): 0/10
- % Inhibition ([2]; 12.5 mg/kg, eight days): 62%
- Toxicity ([2]; 12.5 mg/kg, eight days): 0/10
- % Inhibition ([2]; 25 mg/kg, eight days): 88%
- Toxicity ([2]; 25 mg/kg, eight days): 0/10
- % Inhibition ([2]; 50 mg/kg, eight days): 98%
- Toxicity ([2]; 50 mg/kg, eight days): 1/10

Compound: Nc1nc(O)c2c(n1)NCC(CCc1ccc(C(=O)N[C@@H](CCC(=O)O)C(=O)O)s1)C2 (stereo partly drawn) [N-[5-(2-{2-Amino-4-hydroxy-5,6,7,8-tetrahydropyrido[2,3-d]pyrimidin-6-yl}ethyl)thien-2-ylcarbonyl]-L-glutamic Acid]
- IC50 [1]: 0.0015 µg/mL (≈ 0.00334 µM)
- % Inhibition ([2]; 0.78 mg/kg, 10 days): 93%
- Toxicity ([2]; 0.78 mg/kg, 10 days): 0/10
- % Inhibition ([2]; 1.56 mg/kg, 10 days): 100%
- Toxicity ([2]; 1.56 mg/kg, 10 days): 0/10
- % Inhibition ([2]; 3.12 mg/kg, 10 days): 100%
- Toxicity ([2]; 3.12 mg/kg, 10 days): 6/10
- % Inhibition ([2]; 6.25 mg/kg, 10 days): toxic
- Toxicity ([2]; 6.25 mg/kg, 10 days): 10/10
- % Inhibition ([3]; 50 mg/kg): 38%
- Toxicity ([3]; 50 mg/kg): 0/9
- % Inhibition ([3]; 100 mg/kg): 73%
- Toxicity ([3]; 100 mg/kg): 3/10
- % Inhibition ([3]; 200 mg/kg): 93%
- Toxicity ([3]; 200 mg/kg): 4/10
- % Inhibition ([4]; 20 mg/kg): 78%
- Toxicity ([4]; 20 mg/kg): 0/10
- % Inhibition ([4]; 40 mg/kg): 83%
- Toxicity ([4]; 40 mg/kg): 0/10
- % Inhibition ([5]; 10 mg/kg): 98%
- Toxicity ([5]; 10 mg/kg): 0/8
- % Inhibition ([5]; 20 mg/kg): 100%
- Toxicity ([5]; 20 mg/kg): 4/8
- % Inhibition ([5]; 40 mg/kg): toxic
- Toxicity ([5]; 40 mg/kg): 8/8
- % Inhibition ([6]; 5 mg/kg): 90%
- Toxicity ([6]; 5 mg/kg): 3/10
- % Inhibition ([6]; 10 mg/kg): 94%
- Toxicity ([6]; 10 mg/kg): 6/10
- % Inhibition ([6]; 20 mg/kg): 91%
- Toxicity ([6]; 20 mg/kg): 9/10
- % Inhibition ([6]; 40 mg/kg): toxic
- Toxicity ([6]; 40 mg/kg): 10/10
- % Inhibition ([7]; 5 mg/kg): 84%
- Toxicity ([7]; 5 mg/kg): 3/10
- % Inhibition ([7]; 10 mg/kg): 96%
- Toxicity ([7]; 10 mg/kg): 5/10
- % Inhibition ([7]; 20 mg/kg): toxic
- Toxicity ([7]; 20 mg/kg): 9/9
- % Inhibition ([7]; 40 mg/kg): toxic
- Toxicity ([7]; 40 mg/kg): 10/10
- % Inhibition ([8]; 2.5 mg/kg): 71%
- Toxicity ([8]; 2.5 mg/kg): 0/10
- % Inhibition ([8]; 5 mg/kg): 90%
- Toxicity ([8]; 5 mg/kg): 1/10
- % Inhibition ([8]; 10 mg/kg): 94%
- Toxicity ([8]; 10 mg/kg): 0/10
- % Inhibition ([8]; 20 mg/kg): 100%
- Toxicity ([8]; 20 mg/kg): 0/10
- % Inhibition ([8]; 40 mg/kg): 100%
- Toxicity ([8]; 40 mg/kg): 0/10

Compound: Nc1nc(O)c2c(n1)NCC(CCc1ccc(C(=O)N[C@@H](CCC(=O)O)C(=O)O)o1)C2 (stereo partly drawn) [N-[5-(2-{2-amino-4-hydroxy-5,6,7,8-tetrahydropyrido[2,3-d]pyrimidin-6-yl}ethyl)fur-2-ylcarbonyl]-L-glutamic acid]
- IC50 [1]: 0.01 µg/mL (≈ 0.0231 µM)
- % Inhibition ([2]; 0.625 mg/kg, days 1, 4, 7): 1%
- Toxicity ([2]; 0.625 mg/kg, days 1, 4, 7): 0/10
- % Inhibition ([2]; 1.25 mg/kg, days 1, 4, 7): 29%
- Toxicity ([2]; 1.25 mg/kg, days 1, 4, 7): 0/10
- % Inhibition ([2]; 2.5 mg/kg, days 1, 4, 7): 98%
- Toxicity ([2]; 2.5 mg/kg, days 1, 4, 7): 0/10
- % Inhibition ([2]; 5 mg/kg, days 1, 4, 7): 97%
- Toxicity ([2]; 5 mg/kg, days 1, 4, 7): 0/10
- % Inhibition ([2]; 10 mg/kg, days 1, 4, 7): 100%
- Toxicity ([2]; 10 mg/kg, days 1, 4, 7): 0/10
- % Inhibition ([2]; 20 mg/kg, days 1, 4, 7): 100%
- Toxicity ([2]; 20 mg/kg, days 1, 4, 7): 0/10
- % Inhibition ([2]; 25 mg/kg, eight days): 59%
- Toxicity ([2]; 25 mg/kg, eight days): 0/10
- % Inhibition ([2]; 50 mg/kg, eight days): 69%
- Toxicity ([2]; 50 mg/kg, eight days): 0/10
- % Inhibition ([2]; 100 mg/kg, eight days): 89%
- Toxicity ([2]; 100 mg/kg, eight days): 0/10

Compound: Nc1nc(O)c2c(n1)NCC(CCC1CCC(C(=O)N[C@@H](CCC(=O)O)C(=O)O)CC1)C2 (stereo partly drawn) [N-{4-[2-(2-amino-4-hydroxy-5,6,7,8-tetrahydropyrido[2,3-d]pyrimidin-6-yl)ethyl]cyclohexylcarbonyl}-L-glutamic acid]
- IC50 [1]: 0.007 µg/mL (≈ 0.0156 µM)
- % Inhibition ([2]; 12.5 mg/kg, eight days): 18%
- Toxicity ([2]; 12.5 mg/kg, eight days): 0/10
- % Inhibition ([2]; 25 mg/kg, eight days): 4%
- Toxicity ([2]; 25 mg/kg, eight days): 0/10
- % Inhibition ([2]; 50 mg/kg, eight days): 5%
- Toxicity ([2]; 50 mg/kg, eight days): 0/10
- % Inhibition ([2]; 100 mg/kg, eight days): 22%
- Toxicity ([2]; 100 mg/kg, eight days): 0/9

The remaining lines, values ahead:

- IC50 [1]: 0.023 µg/mL (≈ 0.0582 µM)
Compound: Nc1nc(O)c2c(n1)NCC(CCCCC(=O)N[C@@H](CCC(=O)O)C(=O)O)C2 (stereo partly drawn) [-(CH₂)₂-, N-[5-(2-amino-4-hydroxy-5,6,7,8-tetrahydropyrido[2,3-d]pyrimidin-6-yl)pentanoyl]-L-glutamic acid]

- IC50 [1]: 0.0075 µg/mL (≈ 0.0183 µM)
Compound: Nc1nc(O)c2c(n1)NCC(CCCCCC(=O)N[C@@H](CCC(=O)O)C(=O)O)C2 (stereo partly drawn) [-(CH₂)₃-, N-[6-(2-Amino-4-hydroxy-5,6,7,8-tetrahydropyrido[2,3-d]pyrimidin-6-yl)hexanoyl]-L-glutamic Acid]

- IC50 [1]: 0.034 µg/mL (≈ 0.0803 µM)
Compound: Nc1nc(O)c2c(n1)NCC(CCCCCCC(=O)N[C@@H](CCC(=O)O)C(=O)O)C2 (stereo partly drawn) [-(CH₂)₄- CH₂-CH₂, N-[7-(2-Amino-4-hydroxy-5,6,7,8-tetrahydropyrido[2,3-d]pyrimidin-6-yl)heptanoyl]-L-glutamic acid]

- IC50 [1]: 0.0756 µg/mL (≈ 0.168 µM)
Compound: Nc1nc(O)c2c(n1)NCC(CCc1csc(C(=O)N[C@@H](CCC(=O)O)C(=O)O)c1)C2 (stereo partly drawn) [N-[4-(2-{2-amino-4-hydroxy-5,6,7,8-tetrahydropyrido[2,3-d]pyrimidin-6-yl}ethyl)thien-2-ylcarbonyl]-L-glutamic acid]
